ChEMBL document CHEMBL1201862, “PubChem BioAssay data set” (2004)
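Values below derive from 48-hour exposures of cells grown in 96-well plates, with endpoints linearly interpolated between the two concentrations bracketing the appropriate inhibition level. Here, GI50 denotes the concentration required for 50% inhibition of growth.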 Calls of active or inactive are those of the source. Rule as the data show it: active = GI50 up to about 1.1 µM and inactive = higher.

Legend:
Assay in all cases: NCI-60 cell line screen, 48 h
786-0 = system: 786-0
A498 = system: A498
A549 = system: A549
ACHN = system: ACHN
BT-549 = system: BT-549
CAKI-1 = system: CAKI-1
CCRF-CEM = system: CCRF-CEM
COLO 205 = system: COLO 205
DU-145 = system: DU-145
EKVX = system: EKVX
HCC 2998 = system: HCC 2998
HCT-116 = system: HCT-116
HCT-15 = system: HCT-15
HL-60 = system: HL-60
HOP-62 = system: HOP-62
HOP-92 = system: HOP-92
HT-29 = system: HT-29
Hs-578T = system: Hs-578T
IGROV-1 = system: IGROV-1
K562 = system: K562
KM12 = system: KM12
LOX IMVI = system: LOX IMVI
M14 = system: M14
MCF7 = system: MCF7
MDA-MB-231 = system: MDA-MB-231
MDA-MB-435 = system: MDA-MB-435
MDA-N = system: MDA-N
MOLT-4 = system: MOLT-4
Malme-3M = system: Malme-3M
NCI-H226 = system: NCI-H226
NCI-H23 = system: NCI-H23
NCI-H460 = system: NCI-H460
NCI-H522 = system: NCI-H522
NCI/ADR-RES = system: NCI/ADR-RES
OVCAR-3 = system: OVCAR-3
OVCAR-4 = system: OVCAR-4
OVCAR-5 = system: OVCAR-5
OVCAR-8 = system: OVCAR-8
PC-3 = system: PC-3
RPMI-8226 = system: RPMI-8226
RXF 393 = system: RXF 393
SF-268 = system: SF-268
SF-295 = system: SF-295
SF-539 = system: SF-539
SK-MEL-28 = system: SK-MEL-28
SK-MEL-2 = system: SK-MEL-2
SK-MEL-5 = system: SK-MEL-5
SK-OV-3 = system: SK-OV-3
SN12C = system: SN12C
SNB-19 = system: SNB-19
SNB-75 = system: SNB-75
SR = system: SR
SW-620 = system: SW-620
T47D = system: T47D
TK-10 = system: TK-10
U-251 = system: U-251
UACC-257 = system: UACC-257
UACC-62 = system: UACC-62
UO-31 = system: UO-31

In the case of `Cc1nc2ccccc2nc1-c1ccc(/N=[N+](\[O-])c2ccc(-c3nc4ccccc4nc3C)cc2)cc1`, the GI50 (786-0) is reported as 45.5 µM (inactive), the GI50 (A498) is reported as > 53.2 µM (inactive) and the GI50 (A549) is reported as > 100 µM (inactive). For the same molecule, the GI50 (ACHN) was > 55.7 µM (inactive), the GI50 (BT-549) was > 85.9 µM (inactive) and the GI50 (CAKI-1) was > 100 µM (inactive). For the same molecule, the GI50 (CCRF-CEM) was > 100 µM (inactive), the GI50 (COLO 205) was > 100 µM (inactive) and the GI50 (DU-145) was > 94.4 µM (inactive). For the same molecule, the GI50 (EKVX) was > 100 µM (inactive), the GI50 (HCC 2998) was > 100 µM (inactive) and the GI50 (HCT-116) was > 79.8 µM (inactive). For the same molecule, the GI50 (HCT-15) was over 100 µM, the GI50 (HL-60) was > 100 µM (inactive) and the GI50 (HOP-62) was 23.9 µM (inactive). The GI50 (HOP-92) was > 39.5 µM (inactive), the GI50 (HT-29) was > 100 µM (inactive) and the GI50 (Hs-578T) was 27.5 µM (inactive). For the same molecule, the GI50 (IGROV-1) was > 82.4 µM (inactive), the GI50 (K562) was > 100 µM (inactive) and the GI50 (KM12) was > 100 µM (inactive). The GI50 (LOX IMVI) was > 100 µM (inactive), the GI50 (M14) was > 96.2 µM (inactive) and the GI50 (MCF7) was > 100 µM (inactive). The GI50 (MDA-MB-231) was 24.2 µM (inactive), the GI50 (MDA-MB-435) was > 100 µM (inactive) and the GI50 (MDA-N) was > 100 µM (inactive). For the same molecule, the GI50 (MOLT-4) was > 100 µM (inactive), the GI50 (Malme-3M) was 42.4 µM (inactive) and the GI50 (NCI-H226) was > 74.8 µM (inactive). The GI50 (NCI-H23) was > 83.4 µM (inactive), the GI50 (NCI-H460) was > 100 µM (inactive) and the GI50 (NCI-H522) was > 63.4 µM (inactive). The GI50 (NCI/ADR-RES) was > 64.9 µM (inactive), the GI50 (OVCAR-3) was > 100 µM (inactive) and the GI50 (OVCAR-4) was > 100 µM (inactive). The GI50 (OVCAR-5) was > 100 µM (inactive), the GI50 (OVCAR-8) was 50.1 µM (inactive) and the GI50 (PC-3) was > 100 µM (inactive). The GI50 (RPMI-8226) was > 100 µM (inactive), the GI50 (RXF 393) was 28.8 µM (inactive) and the GI50 (SF-268) was 36.6 µM (inactive). The GI50 (SF-295) was 59.6 µM (inactive), the GI50 (SF-539) was > 50.5 µM (inactive) and the GI50 (SK-MEL-28) was > 100 µM (inactive). The GI50 (SK-MEL-2) was > 68.1 µM (inactive), the GI50 (SK-MEL-5) was > 96.4 µM (inactive) and the GI50 (SK-OV-3) was 30.8 µM (inactive). For the same molecule, the GI50 (SN12C) was > 92.7 µM (inactive), the GI50 (SNB-19) was 48.8 µM (inactive) and the GI50 (SNB-75) was 21 µM (inactive). For the same molecule, the GI50 (SR) was > 100 µM (inactive), the GI50 (SW-620) was > 100 µM (inactive) and the GI50 (T47D) was > 100 µM (inactive). For the same molecule, the GI50 (TK-10) was 20.1 µM (inactive), the GI50 (U-251) was 27.5 µM (inactive) and the GI50 (UACC-257) was > 100 µM (inactive). For the same molecule, the GI50 (UACC-62) was > 93.5 µM (inactive) and the GI50 (UO-31) was > 81.3 µM (inactive).
